# Data taken from publication PMC9418665, “Fatty acid amide hydrolase inhibition and N‐arachidonoylethanolamine modulation by isoflavonoids: A novel target for upcoming antidepressants” (Pharmacology Research & Perspectives, 2022).
# Read-outs that look alike come from different tables or passages of the source.
# Molecular target: T1, fatty acid amide hydrolase (FAAH) (Homo sapiens, UniProt O00519)
# T1 sequence (O00519 1-579): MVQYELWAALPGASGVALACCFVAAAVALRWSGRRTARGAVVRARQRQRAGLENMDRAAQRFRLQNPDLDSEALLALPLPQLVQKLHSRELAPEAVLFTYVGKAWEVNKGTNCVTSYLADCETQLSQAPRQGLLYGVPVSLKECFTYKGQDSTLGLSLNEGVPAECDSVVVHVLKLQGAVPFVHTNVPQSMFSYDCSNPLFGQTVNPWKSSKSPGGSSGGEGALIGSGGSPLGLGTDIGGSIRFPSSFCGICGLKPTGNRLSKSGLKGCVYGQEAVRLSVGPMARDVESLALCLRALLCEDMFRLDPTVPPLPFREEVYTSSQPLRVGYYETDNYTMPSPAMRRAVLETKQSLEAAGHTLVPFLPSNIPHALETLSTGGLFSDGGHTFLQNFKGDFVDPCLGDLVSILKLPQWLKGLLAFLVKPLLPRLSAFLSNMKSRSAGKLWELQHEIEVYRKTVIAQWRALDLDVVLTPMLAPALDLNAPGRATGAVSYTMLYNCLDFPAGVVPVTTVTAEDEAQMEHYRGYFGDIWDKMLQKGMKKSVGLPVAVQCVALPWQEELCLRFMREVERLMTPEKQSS
# Experiment: biochemical
IC50 (read-out: IC50) [nM],SMILES,IC50 [nM]
,CCCCC/C=C\C/C=C\C/C=C\C/C=C\CCCC(=O)NCCc1c[nH]c2ccc(O)cc12 [arch-5HT],1040 ± 130
2100 ± 240,COc1ccc(-c2coc3cc(O)cc(O)c3c2=O)cc1 [biochanin-A],
1300 ± 130,O=c1c(-c2ccc(O)cc2)coc2cc(O)cc(O)c12 [genistein],
,O=c1cc(-c2ccccc2)oc2cc(O)ccc12 [7-hydroxyflavone],2040 ± 190
